The record followed here is patent publication US20150105252A1, “SUBSTITUTED PYRAZOLES AS HERBICIDES” (E I DU PONT DE NEMOURS AND COMPANY, priority 2013, published 2015).

One experiment relates to morningglory. Nature of the experiment: Test C preemergence. It is filed as in vivo, Ipomoea coccinea. An excerpt:
(§1) Seeds of plant species selected from blackgrass (Alopecurus myosuroides), ryegrass, Italian (Italian ryegrass, Lolium multiflorum), wheat (winter wheat, Triticum aestivum), galium (catchweed bedstraw, Galium aparine), corn (Zea mays), crabgrass, large (large crabgrass, Digitaria sanguinalis), foxtail, giant (giant foxtail, Setaria faberii), johnsongrass (Sorghum halepense), lambsquarters (Chenopodium album), morningglory (Ipomoea coccinea), nutsedge, yellow (yellow nutsedge, Cyperus esculentus), pigweed (redroot pigweed, Amaranthus retroflexus), ragweed (common ragweed, Ambrosia elation), soybean (Glycine max), barnyardgrass (Echinochloa crus-galli), oilseed rape (Brassica napus), waterhemp (common waterhemp, Amaranthus rudis), oat, wild (wild oat, Avena fatua), kochia (Kochia scoparia), Surinam grass (Brachiaria decumbens), foxtail, green (green foxtail, Setaria viridis), goosegrass (Eleusine indica), bromegrass, downy (downy bromegrass, Bromus tectorum), nightshade (eastern black nightshade, Solanum ptycanthum), cocklebur (common cocklebur, Xanthium strumarium), cupgrass, woolly (woolly cupgrass, Eriochloa villosa), bermudagrass (Cynodon dactylon), sunflower, (common oilseed sunflower, Helianthus annuus), Russian thistle (Salsola kali), and velvetleaf (Abutilon theophrasti) were planted into a blend of loam soil and sand and treated preemergence with test chemicals formulated in a non-phytotoxic solvent mixture which included a surfactant.
(§2) At the same time, plants selected from these crop and weed species and also chickweed (common chickweed, Stellaria media), canarygrass (littleseed canarygrass, Phalaris minor), and deadnettle (henbit deadnettle, Lamium amplexicaule), were planted in pots containing Redi-Earth® planting medium (Scotts Company, 14111 Scottslawn Road, Marysville, Ohio 43041) comprising spaghnum peat moss, vermiculite, wetting agent and starter nutrients and treated with postemergence applications of test chemicals formulated in the same manner. Plants ranged in height from 2 to 18 cm (1- to 4-leaf stage) for postemergence treatments. Treated plants and controls were maintained in a greenhouse for 13 to 15 days, after which time all species were compared to controls and visually evaluated. Plant response ratings, summarized in Table C, are based on a scale of 0 to 100 where 0 is no effect and 100 is complete control. A dash (-) response means no test result.

In a further experiment the test system is foxtail, giant. Nature of the experiment: Test C preemergence. Format: in vivo, Setaria faberii.
Description: as §1, §2

Experiment [1] relates to barnyardgrass. Nature of the experiment: Test A preemergence. It is filed as in vivo, Echinochloa crus-galli. The conditions noted are these: preemergence. A digest of the protocol: (§3)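 Ratings express plant response from 0 (no effect) to 100 (complete control), judged visually against untreated controls after approximately 10 days in the greenhouse. Preemergence applications were made as directed soil sprays onto seeded loam–sand mix, and postemergence applications onto 2–10 cm plants at one- to two-leaf stage.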

The next experiment concerns pigweed. As to the kind of experiment: Test C preemergence. Format: in vivo, Amaranthus retroflexus.
Description: as §1, §2

Experiment [2] relates to wheat. As to the kind of experiment: Test A preemergence. Format: in vivo, Triticum aestivum. The conditions noted are these: preemergence. A digest of the protocol:
as §3

A further experiment deals with ryegrass, Italian. As to the kind of experiment: Test C preemergence. Format: in vivo, Lolium multiflorum.
Description: as §1, §2

The subject of experiment [3] is velvetleaf. Nature of the experiment: Test A postemergence. It is filed as in vivo, Abutilon theophrasti. A digest of the protocol:
as §3

The subject of experiment [4] is velvetleaf. Nature of the experiment: Test C preemergence. Format: in vivo, Abutilon theophrasti.
Description: as §1, §2

Experiment [5] relates to corn. As to the kind of experiment: Test A postemergence. Format: in vivo, Zea mays. In short, it runs like this: as §3
Experiment [6] concerns barnyardgrass. Nature of the experiment: Test B flood. Format: in vivo, Echinochloa crus-galli. The following applies: 250 g ai/ha, visual rating on 0 to 100 scale (0 no effect, 100 complete control), 13 to 15 days. A digest of the protocol: (§4)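 Response scored visually, 0–100 relative to controls, 13–15 days after the compound was applied into paddy water; plants were at the 2-leaf stage in pots kept flooded to 3 cm.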

Experiment [7] relates to wheat. As to the kind of experiment: Test A postemergence. Format: in vivo, Triticum aestivum. In short, it runs like this: as §3
Another experiment deals with sedge, umbrella. Nature of the experiment: Test B flood. Format: in vivo, Cyperus difformis. The conditions noted are these: 250 g ai/ha, visual rating on 0 to 100 scale (0 no effect, 100 complete control), 13 to 15 days. In short, it runs like this: as §4
For experiment [8], the system named is corn. As to the kind of experiment: Test C preemergence. It is filed as in vivo, Zea mays.
Description: as §1, §2

[9] abbreviates: Preemergence, 16 g ai/ha, scale 0 to 100.
Setting [10] is: preemergence, 31 g ai/ha, visual rating, scale 0 to 100 (0 no effect, 100 complete control), 13 to 15 days.
[11] abbreviates: preemergence, 62 g ai/ha, 13 to 15 days, scale 0 to 100, 0 = no effect, 100 = complete control.
Setting [12] is: preemergence, 125 g ai/ha, scale 0 to 100, 0 is no effect, 100 is complete control.
Where [13] appears, read: 125 g ai/ha, visual injury, 0 to 100 scale, approx. 10 days.
Where [14] appears, read: 500 g ai/ha, visual injury after approx. 10 days, 0 to 100 scale (0 no effect, 100 complete control).
The mark [15] stands for this setting: Postemergence, 500 g ai/ha, visual rating after approx. 10 days, 0 to 100 scale (0 no effect, 100 complete control).
Setting [16] is: postemergence, 125 g ai/ha, about 10 days, visual rating on 0 to 100 scale (0 no effect, 100 complete control).
Where [17] appears, read: Postemergence, 500 g ai/ha, 0 to 100 scale (0 no effect, 100 complete control).

`CCc1cc(C(=O)NOC(C)C)nn1Cc1ccnc(C(F)(F)F)c1` [Compound 101]: the results for the “Plant response rating, Morningglory” value with morningglory (setting [9]) and with morningglory (setting [11]) were 40 and 100, respectively. Moreover, the “Morningglory plant response rating” value in the experiment on morningglory (setting [10]) turned out to be 85; in the experiment on morningglory (setting [12]), 100. Moreover, the “Plant response rating, Foxtail, Giant” value with foxtail, giant (setting [9]) is listed as 15; in the experiment with foxtail, giant (setting [11]), 98. In addition, the “Foxtail, Giant plant response rating” value in the experiment with foxtail, giant (setting [10]) turned out to be 80; in the experiment on foxtail, giant (setting [12]) it was 100. Further, the “Barnyardgrass plant response rating” value in the experiment on barnyardgrass [1] (setting [13]) and in the experiment on barnyardgrass [1] (setting [14]) was 100 each time. The “Plant response rating, Pigweed” value amounted to 20 in the experiment with pigweed (setting [9]) and 90 in the experiment with pigweed (setting [11]). The figures for the “Pigweed plant response rating” value with pigweed (setting [10]) and in the experiment with pigweed (setting [12]) were 80 and 100, respectively. In addition, the “Wheat plant response rating” value in the experiment on wheat [2] (setting [13]) is reported as 70; with wheat [2] (setting [14]), 100; in the experiment with wheat [7] (setting [15]) it was 100; in the experiment with wheat [7] (setting [16]), 80. The “Plant response rating, Ryegrass, Italian” value in the experiment with ryegrass, Italian (setting [9]) was 0; in the experiment with ryegrass, Italian (setting [11]), 60. Besides, the “Ryegrass, Italian plant response rating” value in the experiment with ryegrass, Italian (setting [10]) was 30; in the experiment on ryegrass, Italian (setting [12]), 100. In addition, the “Velvetleaf plant response rating” value in the experiment on velvetleaf [3] (setting [15]) is listed as 80; in the experiment on velvetleaf [3] (setting [16]), 50; in the experiment with velvetleaf [4] (setting [10]) it was 35; with velvetleaf [4] (setting [12]), 100. For the same compound, the “Plant response rating, Velvetleaf” value with velvetleaf [4] (setting [9]) was 0; in the experiment on velvetleaf [4] (setting [11]), 75. Also, the “Corn plant response rating” value with corn [5] (setting [15]) is 100; in the experiment with corn [5] (setting [16]) it was 90; in the experiment on corn [8] (setting [10]), 0; with corn [8] (setting [12]) it was 100. For the same compound, the “Plant response rating, Barnyardgrass” value in the experiment on barnyardgrass [6] is on record as 0. The “Plant response rating, Sedge, Umbrella” value in the experiment with sedge, umbrella is 60. Also, the “Plant response rating, Corn” value with corn [8] (setting [9]) is reported as 0; with corn [8] (setting [11]) it was 95.

Turning to `CCc1cc(C(=O)NC(C)C)nn1Cc1ccnc(C(F)(F)F)c1` [Compound 103], the “Plant response rating (scale of 0 to 100), Morningglory” value in the experiment with morningglory (Preemergence, 250 g ai/ha) amounted to 100. In addition, the “Morningglory plant response rating” value in the experiment with morningglory (setting [10]) and in the experiment on morningglory (setting [12]) was 100 throughout. In addition, the “Plant response rating, Morningglory” value with morningglory (setting [11]) is 100. In the experiment with foxtail, giant (Preemergence, 250 g ai/ha), the “Plant response rating (scale of 0 to 100), Foxtail, Giant” value was 100. Further, the “Foxtail, Giant plant response rating” value with foxtail, giant (setting [10]) is reported as 100; in the experiment with foxtail, giant (setting [12]), 100. In addition, the “Plant response rating, Foxtail, Giant” value with foxtail, giant (setting [11]) worked out at 100. For the same compound, the “Barnyardgrass plant response rating” value in the experiment with barnyardgrass [1] (setting [13]) and with barnyardgrass [1] (setting [14]) was 100 throughout. The “Plant response rating (scale of 0 to 100), Pigweed” value in the experiment with pigweed (Preemergence, 250 g ai/ha) was determined as 100. The “Pigweed plant response rating” value in the experiment on pigweed (setting [10]) and with pigweed (setting [12]) was 100 throughout. In the experiment on pigweed (setting [11]), the “Plant response rating, Pigweed” value is on record as 100. Besides, the “Wheat plant response rating” value in the experiment on wheat [2] (setting [13]) is 40; with wheat [2] (setting [14]), 100; in the experiment with wheat [7] (setting [15]), 90; with wheat [7] (setting [16]), 80. Also, the “Plant response rating (scale of 0 to 100), Ryegrass, Italian” value in the experiment on ryegrass, Italian (Preemergence, 250 g ai/ha) was found to be 98. The “Ryegrass, Italian plant response rating” value is on record as 75 with ryegrass, Italian (setting [10]) and 95 in the experiment with ryegrass, Italian (setting [12]). Further, the “Plant response rating, Ryegrass, Italian” value in the experiment with ryegrass, Italian (setting [11]) amounted to 95. Besides, the “Velvetleaf plant response rating” value with velvetleaf [3] (setting [15]) worked out at 80; in the experiment on velvetleaf [3] (setting [16]), 70; in the experiment with velvetleaf [4] (setting [10]) it was 100; with velvetleaf [4] (setting [12]), 100. Moreover, the “Plant response rating (scale of 0 to 100), Velvetleaf” value in the experiment on velvetleaf [4] (Preemergence, 250 g ai/ha) was determined as 100. The “Plant response rating, Velvetleaf” value in the experiment with velvetleaf [4] (setting [11]) is on record as 100. The “Corn plant response rating” value is on record as 90 with corn [5] (setting [15]), 80 in the experiment on corn [5] (setting [16]), 75 in the experiment with corn [8] (setting [10]) and 100 with corn [8] (setting [12]). Moreover, the “Plant response rating, Barnyardgrass” value in the experiment with barnyardgrass [6] amounted to 40. For the same compound, in the experiment on sedge, umbrella, the “Plant response rating, Sedge, Umbrella” value was found to be 90. Besides, the “Plant response rating (scale of 0 to 100), Corn” value with corn [8] (Preemergence, 250 g ai/ha) worked out at 100. The “Plant response rating, Corn” value with corn [8] (setting [11]) amounted to 100.

For the compound `CCCc1cc(C(=O)NCC(F)(F)F)nn1Cc1cc(C(F)(F)F)nn1C` [Compound 138], the “Barnyardgrass plant response rating” value with barnyardgrass [1] (setting [13]) and with barnyardgrass [1] (setting [14]) was 100 throughout. Moreover, the “Wheat plant response rating” value in the experiment with wheat [2] (setting [13]) is listed as 80; with wheat [2] (setting [14]), 90; in the experiment with wheat [7] (setting [17]), 90; with wheat [7] (setting [16]) it was 80. For the same compound, the “Velvetleaf plant response rating” value stood at 100 in the experiment with velvetleaf [3] (setting [17]) and 60 with velvetleaf [3] (setting [16]). Further, the “Corn plant response rating” value with corn [5] (setting [17]) is recorded as 90; in the experiment with corn [5] (setting [16]), 80. The “Plant response rating, Barnyardgrass” value in the experiment on barnyardgrass [6] is on record as 50. Moreover, in the experiment on sedge, umbrella, the “Plant response rating, Sedge, Umbrella” value is given as 90.

Regarding `CCc1cc(C(=O)NCC(F)(F)F)nn1Cc1cc(OC(F)F)nn1C` [Compound 206], in the experiment on barnyardgrass [1] (125 g ai/ha, visual injury approx. 10 days after treatment), the “Barnyardgrass plant response rating (0 to 100 scale, 0 is no effect, 100 is complete control)” value was 0. The “Barnyardgrass plant response rating” value with barnyardgrass [1] (setting [14]) was 90. Also, the “Corn plant response rating” value in the experiment on corn [5] (setting [17]) stood at 60; with corn [5] (setting [16]), 30. Moreover, in the experiment with barnyardgrass [6], the “Plant response rating, Barnyardgrass” value was 0. Further, the “Wheat plant response rating” value in the experiment on wheat [7] (Postemergence, 125 g ai/ha, 0 to 100 scale, 0 no effect, 100 complete control) came to 10; in the experiment with wheat [7] (setting [17]), 20. Besides, the “Plant response rating, Sedge, Umbrella” value in the experiment on sedge, umbrella was determined as 0.
